The target of test [1] is IDH1 R132H (Homo sapiens, UniProt O75874, R132H). The test can be described thus: IDH1 R132H enzymatic assay (NADPH depletion coupled to diaphorase/resazurin). It is filed as biochemical. Particulars: IDH1 R132H enzymatic inhibition, IC50 class.
Test [2] concerns the target IDH1 R132C (Homo sapiens, UniProt O75874, R132C). The test can be described thus: IDH1 R132C enzymatic assay (NADPH depletion coupled to diaphorase/resazurin). The conditions noted are these: IDH1 R132C enzymatic inhibition, IC50 class. Type of test: biochemical. An outline of the steps:
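NADPH depletion, read via diaphorase/resazurin coupling, after adding substrate at 0.6 mM α-KG and 0.012 mM NADPH. Beforehand, 0.00032 mg/mL enzyme sat with compound 30 min at room temperature in pH 6.5 potassium phosphate buffer with MgCl2, glycerol and BSA.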
(Resazurin is reduced to fluorescent resorufin, in cell work by metabolically active cells.)

Usually IC50 stands for the midpoint of a concentration-inhibition curve. Low readings indicate greater potency in that assay, high ones weaker potency in that assay.

Chain of IDH1 R132H (O75874 whole entry R132H): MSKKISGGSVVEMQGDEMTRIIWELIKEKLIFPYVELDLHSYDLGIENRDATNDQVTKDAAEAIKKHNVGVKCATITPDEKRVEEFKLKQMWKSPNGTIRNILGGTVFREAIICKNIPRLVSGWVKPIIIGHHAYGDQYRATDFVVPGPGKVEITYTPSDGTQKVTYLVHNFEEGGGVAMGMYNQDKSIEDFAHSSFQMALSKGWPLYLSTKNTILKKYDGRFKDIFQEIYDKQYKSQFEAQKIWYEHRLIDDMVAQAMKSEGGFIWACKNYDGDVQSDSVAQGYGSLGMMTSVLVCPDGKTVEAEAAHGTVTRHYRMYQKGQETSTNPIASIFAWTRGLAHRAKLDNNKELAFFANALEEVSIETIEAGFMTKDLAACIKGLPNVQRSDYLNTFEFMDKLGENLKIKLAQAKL
Chain of IDH1 R132C (O75874 whole entry R132C): as the sequence (O75874 whole entry R132H) above, with H132C counted along it

Take `CCc1cccc(CC)c1-n1c(C=C(C)C)c(C(=O)N2CCNC(C)C2C)cc(-c2nc(-c3ccc(Cl)cc3)cs2)c1=O` (centres unmarked) [Compound 646]: the half-inhibitory concentration (IC50) in test [1] and in test [2] was less than 300 nM in each case.

Regarding `CCCC1CNCCN1C(=O)c1cc(-c2nc(-c3ccc(Cl)cc3)cs2)c(=O)n(-c2c(CC)cccc2CC)c1C=C(C)C` (centres unmarked) [Compound 648], the results for the IC50 in test [1] and in test [2] were 300 to 1000 nM and less than 300 nM, respectively.

On to `O=C1CCCc2c1cc(-c1nc(-c3ccc(Cl)cc3)cs1)c(=O)n2-c1ccc(CO)cc1` [Compound 649], for which the IC50 in test [1] and in test [2] was greater than 20000 nM in each case.

Turning to `CCc1cccc(CC)c1-n1c(C=C(C)C)c(C(=O)N2CCNC(=O)C2(C)C)cc(-c2nc(-c3ccc(Cl)cc3)cs2)c1=O` [Compound 650], the IC50 in test [1] and in test [2] was less than 300 nM in each case.

Regarding `Cc1ccc(CO)cc1-n1c2c(cc(-c3nc(-c4ccc(Cl)cc4)cs3)c1=O)C(=O)CCC2` [Compound 651], the IC50 in test [1] and in test [2] was 1000 to 5000 nM in each case.

For the compound `COC(=O)c1ccsc1-n1c2c(cc(-c3nc(-c4ccc(Cl)cc4)cs3)c1=O)C(=O)CC(C)(C)C2` [Compound 652], the 50% inhibitory concentration (IC50) in test [1] and in test [2] was 300 to 1000 nM each time.

Consider `CCc1cccc(CC)c1-n1c(C=C(C)C)c(C(=O)N2CCNC(C(N)=O)C2)cc(-c2ccn(-c3ccc(Cl)cc3)n2)c1=O` (centres unmarked) [Compound 653], for which the IC50 in test [1] and in test [2] was less than 300 nM in each case.

In the case of `CCc1cccc(CC)c1-n1c(CC(C)C)c(C(=O)N2CCNCC2)cc(-c2nc(-c3ccc(C(F)(F)F)cc3)cs2)c1=O` [Compound 654], the IC50 in test [1] and in test [2] was less than 300 nM in each case.

As to `CCc1cccc(F)c1-n1c(C=C(C)C)c(C(=O)N2CCNCC2)cc(-c2nc(-c3ccc(Cl)cc3)cs2)c1=O` [Compound 655], the IC50 in test [1] and in test [2] was less than 300 nM throughout.

In the case of `CCc1ccc(C)cc1-n1c(C=C(C)C)c(C(=O)N2CCNCC2)cc(-c2nc(-c3ccc(Cl)cc3)cs2)c1=O` [Compound 656], the half-maximal inhibitory concentration (IC50) in test [1] and in test [2] was less than 300 nM throughout.

For the compound `CCc1cccc(CC)c1-n1c(C=C(C)C)c(C(=O)N2CCNC(C#N)C2)cc(-c2nc(-c3ccc(Cl)cc3)cs2)c1=O` (centres unmarked) [Compound 657], the IC50 in test [1] and in test [2] was less than 300 nM each time.

Regarding `CCc1cccc(CC)c1-n1c(CC(C)C)c(C(=O)N2CCNCC2)cc(-n2cc(-c3ccc(Cl)cc3)cn2)c1=O` [Compound 658], the concentration for half-maximal inhibition (IC50) in test [1] and in test [2] was 5000 to 20000 nM throughout.

`CCc1cccc(CC)c1-n1c(C=C(C)C)c(C(=O)N2CCC3(CCNC3)C2)cc(-c2nc(-c3ccc(Cl)cc3)cs2)c1=O` (centres unmarked) [Compound 659]: the IC50 in test [1] is 300 to 1000 nM; in test [2], less than 300 nM.

Regarding `CCc1cccc(CC)c1-n1c(C=C(C)C)c(C(=O)N2C(C)CNCC2C(=O)O)cc(-c2nc(-c3ccc(Cl)cc3)cs2)c1=O` (centres unmarked) [Compound 660], the IC50 in test [1] and in test [2] was less than 300 nM each time.

On to `COc1ncccc1-n1c2c(cc(-c3nc(-c4ccc(Cl)cc4)cs3)c1=O)C(=O)CC(C)(C)C2` [Compound 661], for which the results for the IC50 in test [1] and in test [2] were 1000 to 5000 nM and 300 to 1000 nM, respectively.

In the case of `CCc1cccc(CC)c1-n1c(CC(C)C)c(C(=O)N2CCNCC2)cc(-c2nc(-c3ccc(Cl)cc3)c(Cl)s2)c1=O` [Compound 662], the IC50 was 300 to 1000 nM in test [1] and less than 300 nM in test [2].

As to `COc1ccc(-n2c3c(cc(-c4nc(-c5ccc(Cl)cc5)cs4)c2=O)C(=O)CC(C)(C)C3)c(Cl)c1` [Compound 663], the concentration for half-maximal inhibition (IC50) is greater than 20000 nM in test [1] and 1000 to 5000 nM in test [2].

As to `CCc1cccc(CC)c1-n1c(C(C)(C)F)c(C(=O)N2CCNCC2)cc(-c2nc(-c3ccc(Cl)cc3)cs2)c1=O` [Compound 664], the IC50 in test [1] and in test [2] was 300 to 1000 nM each time.

On to `CCOc1ccc(Cl)cc1-n1c(C=C(C)C)c(C(=O)N2CCNCC2)cc(-c2nc(-c3ccc(C(F)(F)F)cc3)cs2)c1=O` [Compound 665], for which the half-inhibitory concentration (IC50) in test [1] and in test [2] was less than 300 nM each time.

The values above are taken from patent US10703746B2, “Mutant IDH1 inhibitors useful for treating cancer” (THE UNITED STATES OF AMERICA, AS REPRESENTED BY THE …, priority 2014, dated 2020).
